Measured values published in US9101569B2, “Methods for the treatment of insulin resistance” (UNIVERSITE DE GENEVE, priority 2010, dated 2015).
*1 amine or outer side, *2 acyl side, *3 side chain or, on linkers, in order; H or OH if unused. Where a SMILES comes first, the peptide text is derived from it. Bridges are numbered along the chain shown (N, C = ends). X1 = O=C(CCC[*:2])[*:1]

Experiments:
[1] = system: differentiated 3T3-L1 adipocytes; assay: Lipid metabolism in differentiated 3T3-L1 adipocytes in vitro; format: cell-based, Murine; conditions: incubated in the presence of OEA
Method: The in vitro effect of OT on lipid metabolism in differentiated 3T3-L1 adipocytes was assayed as follows. Murine 3T3-L1 fibroblasts were differentiated towards a […] phenotype as previously described (Olson et al., 1997, Mol. Cell. Biol., 2425-2435). In brief, cells were cultured in Dulbecco's modified eagle medium (DMEM) with 4.5 g/l glucose supplemented with 10% heat-inactivated depleted calf serum (DCS) at 37° C./8% CO2. Cells were induced to differentiate, two days post confluence, by sequential incubations with: DMEM 4.5 g/l glucose, 10% fetal bovine serum (FCS) containing 1 μg/ml insulin, 0.25 μM dexamethasone and 0.5 mM isobutylmethylxanthane (IBMX) for 4 days; DMEM 4.5 g/l glucose, 10% FCS containing insulin alone for an additional 4 days; DMEM 4.5 g/l glucose, 10% FCS for 3-4 days. Differentiation was considered achieved when more than 90% of cells display an accumulation of large lipid droplets in their cytoplasm.

HFD-induced obese rats = assay: High-fat diet-induced obesity rat model, subcutaneous infusion: body weight gain, food intake, body composition; format: in vivo; conditions: for food intake / body weight gain: 14 days; for body weight gain: not observed in pair-fed group
Method: Another group of the above male Wistar rats were rendered obese as described above and were subcutaneously infused with saline or OT (NeoMPS®, Strasbourg, France) (50 nmol/day/rat) during 14 days.
The beneficial metabolic effects of OT administration were assayed in the same high-fat diet induced obesity model in rats as in Example 1 and in PPAR-alpha knockout mice (Lee et al., 1995, Mol. Cell. Biol., 15(6):3012-22). HFD-induced obese animals, saline or OT groups (see conditions under Example 1) were subcutaneously infused via minipumps (Alzet®, as above). OT was delivered at a dose of 50 nmol/day/rat during 14 days.
An EchoMRI-700 quantitative nuclear magnetic resonance (QMR) analyzer (Echo Medical Systems, Houston, Tex.) was used to measure total fat mass and lean body mass in rats at the beginning and the end of the treatment.
The beneficial metabolic effects of administration of an oxytocin derivative according to the invention (Carbetocin) were assessed in the same rat model of high-fat diet induced obesity as in Example 1. HFD-induced obese animals were subcutaneously infused via minipumps (Alzet®, as above) with saline or carbetocin (Bachem) (5 nmol/day/rat or 50 nmol/day/rat) during 14 days.
Body composition parameters were measured by quantitative nuclear magnetic resonance as described in Example 3 at the beginning and 10 days of treatment.

CCCCCCCC/C=C\CCCCCCCC(=O)NCCO [OEA, Oleoylethanolamide]
mRNA expression of PPAR-alpha [1]: induce | mRNA expression of most of the PPAR-alpha related genes (Acadm, Acox1, Ehhadh, Ucp3) [1]: induce

CC[C@H](C)[C@@H]1NC(=O)[C@H](Cc2ccc(OC)cc2)NC(=O)CCCSC[C@@H](C(=O)N2CCC[C@H]2C(=O)N[C@@H](CC(C)C)C(=O)NCC(N)=O)NC(=O)[C@H](CC(N)=O)NC(=O)[C@H](CCC(N)=O)NC1=O [carbetocin, Butyryl-Tyr(Me)-Ile-Gln-Asn-Cys-Pro-Leu-Gly-NH2] (Y(Me)IQNCPLG-NH2; linker N-5 via X1)
food intake (HFD-induced obese rats; s.c. 5 nmol/day): decreased | body weight gain (HFD-induced obese rats; s.c. 5 nmol/day): decreased | food intake (HFD-induced obese rats; s.c. 50 nmol/day): decreased | body weight gain (HFD-induced obese rats; s.c. 50 nmol/day): decreased | fat mass (QMR) (HFD-induced obese rats; s.c. carbetocin (5 nmol/d and 50 nmol/d groups), 10 days, independent of food intake): significant decrease
